The values that follow come from patent US20240190864A1 (YA THERAPEUTICS INC, priority 2021, published 2024).

As a reminder, the IC50 is the point on the concentration scale where inhibition reaches its midpoint.

One test has as its target BTK (Homo sapiens, UniProt Q06187). Put plainly: BTK Kinase Test. The class given is biochemical. As to conditions: BTK kinase inhibitory activity; enzyme with compound 30 min, ATP 50 μM, ULight poly GT substrate. As to the method: Dilute 350 ng/uL BTK mother solution with kinase buffer solution (50 mM HEPES, 10 mM MgCl2, 2 mM DTT, 1 mM EGTA, 0.01% Tween 20), and add 6 μL 1.67×0.134 ng/μL working solution (final concentration 0.08 ng/μL), using the nanoliter sampler, add different compounds dissolved by DMSO into the pores, so that the final concentration of the compound is 1000 nM-0.244 nM, and the final concentration of the positive drug is 50 nM-0.0122 nM. Four times the gradient, a total of seven concentrations are available. At the same time, set up blank control pores (without enzyme) and negative control pores (with enzyme, with solvent DMSO), and set up two double pores. After the enzyme reacts with compound or solvent for 30 min, 5×250 μM ATP (final concentration is 50 μM) and 5×0.5 μM Substrate (final concentration 0.1 μμM. ULight poly GT), mix at 1:1, 4 per hole μL is added into the hole; after sealing, add […] to each hole after reacting at room temperature for 2 hours μL 4×8 nM detection reagent (final concentration is 2 nM, Ab), incubate at room temperature for 1 hour; PE instrument reading board (excitation […], emission 665 nm). Calculate the inhibition rate and calculate the IC50 value.

Test [1] deals with Diffuse large B cell lymphoma cell strain TMD-8. Put plainly: Tumor Cell Proliferation Inhibition Assay (CellTiter-Glo). The test is classed as cell-based. The settings on record: Homo sapiens, TMD8; TMD-8 cells, incubated with compound 72 hours, 10% fetal calf serum, ATP content. As for the experimental part:
Cell viability was evaluated by measuring a content of triphosadenine (ATP) by using CellTiter-Glo luminescent cell viability assay kit method (Promega, #G7572, Madison, WI). Diffuse large B cell lymphoma cell strain TMD-8 cell strain is purchased from American Type Culture Collection (ATCC). After the cells were digested from a cell culture dish by pancreatin and re-suspended by DPBS culture medium, a Scepter automatic cell counter (Millipore, #PHCC00000) was used for counting to measure a cell density. The cells were diluted to be a solution containing 44,000 cells per milliliter. The cell solution with the adjusted density was added into a cell assay plate with 90 μl per well. The well plate was placed to an incubator with 5% CO2 at 37° C. to be incubated for 24 hours and then added with the compound to be tested with different concentrations. The cells and the compound were together incubated for 72 hours in the presence of 10% fetal calf serum. The content of ATP was measured by using CellTiter-Glo® Luminescent Cell Viability Assay kit (referring to manufacturer's instruction) to evaluate the inhibition to the cell growth. Briefly speaking, each well was added with 30 μl of CellTiter-Glo® reagent, the plate was shaken for 10 minutes to induce the cells to be lysed, and fluorescence signal was detected and recorded by fluorescence/chemiluminescence analyzer Fluoroskan Ascent FL (Thermo Scientific Fluoroskan Ascent FL). The maximal signal value was obtained from cells processed by dimethyl sulfoxide (DMSO) for 72 or 120 hours. The minimal signal value obtained from separate culture medium (wherein the number of cells was zero) was defined as 0. Inhibition ratio %=(maximal signal value−compound signal value)/(maximal signal value−minimal signal value)×100%. The data was processed by using GraphPad Prism V5.0 (GraphPad Software, San Diego, CA) software. IC50 value was fitted and calculated via S-shaped dose-response curve.
On the technique in general: ATP-based viability assays read luminescence as a measure of living cells.

BTK, sequence (Q06187 whole entry): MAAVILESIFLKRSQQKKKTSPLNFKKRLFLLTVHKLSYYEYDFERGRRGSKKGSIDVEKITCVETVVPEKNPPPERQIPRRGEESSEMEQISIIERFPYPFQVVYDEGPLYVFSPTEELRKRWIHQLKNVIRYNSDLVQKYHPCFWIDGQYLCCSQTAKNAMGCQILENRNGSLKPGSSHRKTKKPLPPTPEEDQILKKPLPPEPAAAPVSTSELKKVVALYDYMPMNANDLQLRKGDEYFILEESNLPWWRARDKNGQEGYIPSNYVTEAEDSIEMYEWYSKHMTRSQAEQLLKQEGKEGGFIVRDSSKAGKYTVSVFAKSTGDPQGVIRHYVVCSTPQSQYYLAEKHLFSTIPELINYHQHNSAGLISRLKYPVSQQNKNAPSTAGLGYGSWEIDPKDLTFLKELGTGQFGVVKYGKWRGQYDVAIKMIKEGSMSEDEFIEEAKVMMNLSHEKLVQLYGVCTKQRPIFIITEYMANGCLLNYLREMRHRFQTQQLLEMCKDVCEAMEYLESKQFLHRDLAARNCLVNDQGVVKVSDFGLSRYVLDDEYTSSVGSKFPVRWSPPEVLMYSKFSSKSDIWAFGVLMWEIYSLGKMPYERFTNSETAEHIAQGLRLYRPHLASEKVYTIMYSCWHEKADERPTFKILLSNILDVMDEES

Turning to `CC#CC(=O)N[C@H]1CCCN(c2nc(-c3ccc(Oc4ccccc4)cc3)c(C(N)=O)c3[nH]c(=O)[nH]c23)C1` [Compound 1, (S)-4-(3-(but-2-ynamido)piperidin-1-yl)-2-oxo-6-(4-phenoxyphenyl)-2,3-dihydro-1H-imidazo[4,5-c]pyridine-7-carboxamide], at BTK, the IC50 is at most 10 nM. For the compound `CC#CC(=O)N[C@H]1CCCN(c2nc(-c3ccc(Oc4ccccc4)cc3)c(C(N)=O)c3[nH]ncc23)C1` [Compound 2, (S)-4-(3-(but-2-ynamido)piperidin-1-yl)-6-(4-phenoxyphenyl)-1H-pyrazolo [4,5-c]pyridine-7-carboxamide], the IC50 at BTK was at most 10 nM. Turning to `C=CC(=O)N[C@H]1CCCN(c2nc(-c3ccc(Oc4ccccc4)cc3)c(C(N)=O)c3[nH]c(=O)[nH]c23)C1` [Compound 3, (S)-4-(3-acrylamidopiperidin-1-yl)-2-oxo-6-(4-phenoxyphenyl)-2,3-dihydro-1H-imidazo[4,5-c]pyridine-7-carboxamide], the IC50 at BTK is at most 10 nM.

Regarding `CC#CC(=O)N[C@H]1CCN(c2nc(-c3ccc(Oc4ccccc4)cc3)c(C(N)=O)c3[nH]c(=O)[nH]c23)C1` [Compound 5, (S)-4-(3-(but-2-ynamido)pyrrolidin-1-yl)-2-oxo-6-(4-phenoxyphenyl)-2,3-dihydro-1H-imidazo[4,5-c]pyridine-7-carboxamide], the IC50 at BTK is at most 10 nM.

For `CC#CC(=O)N[C@@H]1CCCN(c2nc(-c3ccc(Oc4ccccc4)cc3)c(C(N)=O)c3[nH]c(=O)[nH]c23)C1` [Compound 6, (R)-4-(3-(but-2-ynamido)piperidin-1-yl)-2-oxo-6-(4-phenoxyphenyl)-2,3-dihydro-1H-imidazo[4,5-c]pyridine-7-carboxamide], the IC50 on BTK was at most 10 nM.

As for `CC#CC(=O)N[C@@H]1CCN(c2nc(-c3ccc(Oc4ccccc4)cc3)c(C(N)=O)c3[nH]c(=O)[nH]c23)C1` [Compound 9, (R)-4-(3-(but-2-ynamido)pyrrolidin-1-yl)-2-oxo-6-(4-phenoxyphenyl)-2,3-dihydro-1H-imidazo[4,5-c]pyridine-7-carboxamide], the IC50 on BTK is at most 10 nM. `CC#CC(=O)N[C@H]1CCCN(c2nc(-c3ccc(Oc4ccccc4)cc3)c(C(N)=O)c3[nH]cnc23)C1` [Compound 18, (S)-4-(3-(but-2-ynamido)piperidin-1-yl)-6-(4-phenoxyphenyl)-1H-imidazo[4,5-c]pyridine-7-carboxamide]: the IC50 at BTK is at most 10 nM. On the same count and under the same terms, the figure for `CC#CC(=O)N[C@H]1CCCN(c2nc(-c3ccc(Oc4ccccc4)cc3)c(C(N)=O)c3[nH]c(C)nc23)C1` [Compound 19, (S)-4-(3-(but-2-ynamido)piperidin-1-yl)-2-methyl-6-(4-phenoxyphenyl)-1H-imidazo[4,5-c]pyridine-7-carboxamide] is at most 10 nM. Turning to `C=CC(=O)N1CCC(c2nc(-c3ccc(Oc4ccccc4)cc3)c(C(N)=O)c3[nH]c(=O)[nH]c23)CC1` [Compound 20, 4-(1-acryloylpiperidin-4-yl)-2-oxo-6-(4-phenoxyphenyl)-2,3-dihydro-1H-imidazo[4,5-c]pyridine-7-carboxamide], at BTK, the IC50 was at most 10 nM. On to `CC#CC(=O)N[C@H]1CCCN(c2nc(-c3ccc(Oc4ccccc4)cc3)c(C(N)=O)c3[nH]ccc23)C1` [Compound 23, (S)-4-(3-(but-2-ynamido)piperidin-1-yl)-6-(4-phenoxyphenyl)-1H-pyrrolo[3,2-c]pyridine-7-carboxamide], for which the IC50 (in test [1]; at BTK) was at most 10 nM each time.

In the case of `CC#CC(=O)N[C@@H]1CCCN(c2nc(-c3ccc(Oc4ccccc4)cc3)c(C(N)=O)c3[nH]ccc23)C1` [Compound 24, (R)-4-(3-(but-2-ynamido)piperidin-1-yl)-6-(4-phenoxyphenyl)-1H-pyrrolo[3,2-c]pyridine-7-carboxamide], the IC50 at BTK was at most 10 nM.

With `C=CC(=O)N1CCC(c2nc(-c3ccc(Oc4ccccc4)cc3)c(C(N)=O)c3[nH]ccc23)CC1` [Compound 25, 4-(1-acryloylpiperidin-4-yl)-6-(4-phenoxyphenyl)-1H-pyrrolo [3,2-c]pyridine-7-carboxamide], the IC50 (in test [1]; at BTK) was at most 10 nM each time. On to `C=CC(=O)N1CCC[C@H](c2nc(-c3ccc(Oc4ccccc4)cc3)c(C(N)=O)c3[nH]ccc23)C1` [Compound 26, (S)-4-(1-acryloylpiperidin-3-yl)-6-(4-phenoxyphenyl)-1H-pyrrolo[3,2-c]pyridine-7-carboxamide], for which the 50% inhibitory concentration (IC50) (in test [1]; at BTK) was at most 10 nM each time. For the compound `C=CC(=O)N1CCC[C@@H](c2nc(-c3ccc(Oc4ccccc4)cc3)c(C(N)=O)c3[nH]ccc23)C1` [Compound 27, (R)-4-(1-acryloylpiperidin-3-yl)-6-(4-phenoxyphenyl)-1H-pyrrolo[3,2-c]pyridine-7-carboxamide], the IC50 (in test [1]; at BTK) was at most 10 nM each time. With `CC#CC(=O)N[C@H]1CCCN(c2ncc(C(N)=O)c3[nH]c(=O)c(=O)[nH]c23)C1` [Compound 28, (S)-5-(3-(but-2-ynamido)piperidin-1-yl)-2,3-dioxo-1,2,3,4-tetrahydropyrido[3,4-b]pyrazine-8-carboxamide], the IC50 on BTK was at most 10 nM. `CC#CC(=O)N[C@H]1CCCN(c2ncc(C(N)=O)c3[nH]cnc23)C1` [Compound 36, (S)-4-(3-(but-2-ynamido)piperidin-1-yl)-1H-imidazo[4,5-c]pyridine-7-carboxamide]: at BTK, the IC50 is at most 10 nM. For `CC#CC(=O)N[C@H]1CCCN(c2ncc(C(N)=O)c3[nH]c(=O)[nH]c23)C1` [Compound 38, (S)-4-(3-(but-2-ynamido)piperidin-1-yl)-2-oxo-2,3-dihydro-1H-imidazo[4,5-c]pyridine-7-carboxamide], the half-maximal inhibitory concentration (IC50) (in test [1]; on BTK) was at most 10 nM each time. Consider `C=CC(=O)N1CCC(c2ncc(C(N)=O)c3[nH]c(=O)[nH]c23)CC1` [Compound 40, 4-(1-acryloylpiperidin-4-yl)-2-oxo-2,3-dihydro-1H-imidazo[4,5-c]pyridine-7-carboxamide], for which the IC50 (in test [1]; at BTK) was at most 10 nM in each case. Take “(R)-4-(3-(but-2-ynamido)piperidin-1-yl)-6-(4-phenoxyphenyl)-1H-pyrazolo [4,3-c]pyridine-7-carboxamide [Compound 7]”: the IC50 at BTK is at most 10 nM. In the case of “(R)-4-(3-acrylamidopiperidin-1-yl)-2-oxo-6-(4-phenoxyphenyl)-2,3-dihydro-1H-imidazo[4,5-c]pyridine-7-carboxamide [Compound 8]”, at BTK, the IC50 is at most 10 nM. “(S)-4-(3-acrylamidopyrrolidin-1-yl)-2-oxo-6-(4-phenoxyphenyl)-2,3-dihydro-1H-imidazo[4,5-c]pyridine-7-carboxamide [Compound 4]”: at BTK, the IC50 is at most 10 nM.
